The values below come from ChEMBL document CHEMBL5365504, “Psychoplastogens: A Novel Therapeutic Approach for Neurological Diseases and Disorders” (ACS Med Chem Lett, 2023).

Common to all, as to assay type: functional, cell-based
Conditions in all cases: 72 h

Assay [1] concerns Cortical neurone. As to the kind of experiment: Induction of neurite outgrowth in Wistar rat Cortical neuron cells assessed as increase in neurite number incubated for 3 days by DAPI staining based high-content screening method.
Assay [2] has as its system Cortical neurone. In words: Induction of neurite outgrowth in Wistar rat Cortical neuron cells assessed as increase in neurite length incubated for 3 days by DAPI staining based high-content screening method.
Assay [3] has as its system Cortical neurone. As to the kind of experiment: Induction of neurite outgrowth in Wistar rat Cortical neuron cells assessed as increase in number of branch points incubated for 3 days by DAPI staining based high-content screening method.

Usually EC50 stands for the concentration needed to bring the measured effect to its halfway point.

As for `C[C@H](Cn1ccc2nc(OCc3ccccc3)ccc21)N(C)C`, the EC50 in the assay on Cortical neurone [1], in the assay with Cortical neurone [2] and in the assay with Cortical neurone [3] was less than 10 nM throughout.

As for `C[C@H](Cn1ccc2cc(OCc3ccccc3)ccc21)N1CCCC1`, the values for the EC50 in the assay on Cortical neurone [1], with Cortical neurone [2] and in the assay on Cortical neurone [3] were less than 10 nM, less than 10 nM and 10 nM, respectively.

Turning to `C[C@@H](N)Cn1ccc2cc(OCc3cccc(F)c3)ccc21`, the concentration giving a half-maximal response (EC50) was 10 nM with Cortical neurone [1], less than 10 nM with Cortical neurone [2] and less than 10 nM in the assay on Cortical neurone [3].

Take `C[C@@H](N)Cn1ccc2cc(OCc3ccc(F)cc3)ccc21`: the EC50 in the assay with Cortical neurone [1], with Cortical neurone [2] and in the assay on Cortical neurone [3] was 10 nM throughout.

Take `C[C@H](Cn1ccc2cc(OCc3ccccc3)ccc21)N(C)C`: the EC50 in the assay with Cortical neurone [1] is 10 nM; in the assay with Cortical neurone [2], less than 10 nM; in the assay on Cortical neurone [3], 10 nM.

As for `C[C@H](Cn1ccc2cc(OCc3cccc(F)c3)ccc21)N(C)C`, the half-maximal effective concentration (EC50) with Cortical neurone [1], in the assay with Cortical neurone [2] and in the assay on Cortical neurone [3] was less than 10 nM each time.

`C[C@H](Cn1ccc2cc(OCc3ccccc3F)ccc21)N(C)C`: the EC50 with Cortical neurone [1], in the assay with Cortical neurone [2] and in the assay on Cortical neurone [3] was less than 10 nM each time.

In the case of `CCN(CC)[C@H](C)Cn1ccc2cc(OCc3ccccc3)ccc21`, the concentration giving a half-maximal response (EC50) with Cortical neurone [1], in the assay with Cortical neurone [2] and in the assay on Cortical neurone [3] was less than 10 nM each time.

For the compound `C[C@H](Cn1ccc2cc(OCc3ccc(F)cc3)ccc21)N(C)C`, the concentration giving a half-maximal response (EC50) with Cortical neurone [1], with Cortical neurone [2] and in the assay on Cortical neurone [3] was less than 10 nM each time.

As for `C[C@@H](N)Cn1ccc2cc(OCc3ccccc3F)ccc21`, the half-maximal effective concentration (EC50) is less than 10 nM with Cortical neurone [1], 10 nM in the assay with Cortical neurone [2] and less than 10 nM in the assay with Cortical neurone [3].

Consider `CN[C@H](C)Cn1ccc2cc(OCc3ccccc3)ccc21`, for which the EC50 in the assay with Cortical neurone [1], with Cortical neurone [2] and in the assay on Cortical neurone [3] was less than 10 nM throughout.
